Target: T1, human PF4 (Homo sapiens, UniProt P02776)
T1 construct: PF4 is a 70 amino acid, lysine-rich 7.8 kDa platelet-specific protein; made in house; host or cells: Escherichia coli BL21DE3 pLysS (pT7-7) and/or Drosophila S2 cells
T1 sequence (P02776 32-101): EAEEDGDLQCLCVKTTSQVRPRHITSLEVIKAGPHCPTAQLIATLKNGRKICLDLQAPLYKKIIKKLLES
Test: Inhibition of PF4 tetramer formation (BS3 cross-linking, SDS-PAGE)
Format: biochemical
Details: for inhibition at 1 µM: 1 μM inhibitor; for inhibition at 1 µM / inhibition at 3 µM / inhibition at 5 µM / inhibition at 10 µM: read-out: % inhibition of PF4 tetramer formation at single concentration of inhibitor; for inhibition at 3 µM: 3 μM inhibitor (column A); for inhibition at 5 µM: 5 μM inhibitor; for inhibition at 10 µM: 10 μM inhibitor (column A); for IC50: read-out: IC50 of PF4 tetramer formation inhibition
In short: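 Recombinant human wild-type PF4 (E. coli-expressed, heparin-purified), 10 μg/ml in PBS, incubated with compound 15 min at 37° C or 60 min at room temperature, then cross-linked with 0.2 mM BS3 for 30 min at room temperature. Reducing 12% SDS-PAGE; bands quantified as % tetramer, trimer, dimer, monomer versus compound-free control.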

`O=C(NCC1CCOC1)C1C(=O)c2ccc(S(=O)(=O)c3ccc4c(c3)C(=O)C(C(=O)NCC3CCOC3)C4=O)cc2C1=O` (stereo not shown) [Example 362, 5-[(1,3-dioxo-2-{[(oxolan-3-yl)methyl]carbamoyl}-2,3-dihydro-1H-inden-5-yl)sulfonyl]-1,3-dioxo-N-[(oxolan-3-yl)methyl]-2,3-dihydro-1H-indene-2-carboxamide] was tested, and the inhibition at 1 µM was 33% and the inhibition at 3 µM was 53%.
In the case of `O=C(Nc1cccc(Cl)c1)C1C(=O)c2ccc(S(=O)(=O)c3ccc4c(c3)C(=O)C(C(=O)Nc3cccc(Cl)c3)C4=O)cc2C1=O` (stereo not shown) [Example 86, N-(3-chlorophenyl)-5-({2-[(3-chlorophenyl)carbamoyl]-1,3-dioxo-2,3-dihydro-1H-inden-5-yl}sulfonyl)-1,3-dioxo-2,3-dihydro-1H-indene-2-carboxamide], the inhibition at 5 µM is reported as 73% and the inhibition at 10 µM is reported as 90%.
Work on `O=C(NCCc1cccc(Cl)c1)C1C(=O)c2ccc(S(=O)(=O)c3ccc4c(c3)C(=O)C(C(=O)NCCc3cccc(Cl)c3)C4=O)cc2C1=O` (stereo not shown) [Example 84, N-[2-(3-chlorophenyl)ethyl]-5-[(2-{[2-(3-chlorophenyl)ethyl]carbamoyl}-1,3-dioxo-2,3-dihydro-1H-inden-5-yl)sulfonyl]-1,3-dioxo-2,3-dihydro-1H-indene-2-carboxamide] yielded an IC50 of 3 µM.
`CS(=O)(=O)N1CCC(NC(=O)C2C(=O)c3ccc(C(=O)c4ccc5c(c4)C(=O)C(C(=O)NC4CCN(S(C)(=O)=O)CC4)C5=O)cc3C2=O)CC1` (stereo not shown) [Example 365, N-(1-methanesulfonylpiperidin-4-yl)-5-{2-[(1-methanesulfonylpiperidin-4-yl)carbamoyl]-1,3-dioxo-2,3-dihydro-1H-indene-5-carbonyl}-1,3-dioxo-2,3-dihydro-1H-indene-2-carboxamide] was tested, and the inhibition at 1 µM was 27%, the inhibition at 3 µM was 63% and the IC50 was 3.39 µM.
`O=C(c1ccc2c(c1)C(=O)C(C(=O)NCc1ccco1)C2=O)c1ccc2c(c1)C(=O)C(C(=O)NCc1ccco1)C2=O` (stereo not shown) [Example 19, 5,5′-carbonylbis(1,3-dioxo-indan-2-carboxylic acid (furan-2-ylmethyl)-amide)] was tested, and the inhibition at 5 µM was 29% and the inhibition at 10 µM was 56%.
With `O=C1c2ccc(S(=O)(=O)c3ccc4c(c3)C(=O)C(C(=S)NC3CC3)C4=O)cc2C(=O)C1C(=S)NC1CC1` (stereo not shown) [Example 329, N-cyclopropyl-5-{[2-(cyclopropylcarbamothioyl)-1,3-dioxo-2,3-dihydro-1H-inden-5-yl]sulfonyl}-1,3-dioxo-2,3-dihydro-1H-indene-2-carbothioamide] the inhibition at 1 µM was 22% and the inhibition at 3 µM was 50%.
For `C/C(O)=C1\C(=O)c2ccc(C#Cc3ccc4c(c3)C(=O)/C(=C(/C)O)C4=O)cc2C1=O` [Example 196], the inhibition at 5 µM was 88%, the inhibition at 10 µM was 96% and the IC50 was 5.3 µM.
`CC[C@H](NC(=O)OCc1ccccc1)C(=O)C1C(=O)c2ccc(S(=O)(=O)c3ccc4c(c3)C(=O)C(C(=O)[C@H](CC)NC(=O)OCc3ccccc3)C4=O)cc2C1=O` (stereo partly shown) [Example 166] gave an inhibition at 5 µM of 59%, an inhibition at 10 µM of 84% and an IC50 of 3.4 µM.
`CSCC(=O)C1C(=O)c2ccc(Oc3ccc4c(c3)C(=O)C(C(=O)CSC)C4=O)cc2C1=O` (stereo not shown) [Example 280, 2-[2-(methylsulfanyl)acetyl]-5-({2-[2-(methylsulfanyl)acetyl]-1,3-dioxo-2,3-dihydro-1H-inden-5-yl}oxy)-2,3-dihydro-1H-indene-1,3-dione] was tested, and the inhibition at 1 µM was 23%, the inhibition at 3 µM was 43% and the IC50 was 3 µM.
`Cc1ccccc1C(=O)CCC(=O)C1C(=O)c2ccc(C(=O)c3ccc4c(c3)C(=O)C(C(=O)CCC(=O)c3ccccc3C)C4=O)cc2C1=O` (stereo not shown) [Example 252, 2-[4-(2-methylphenyl)-4-oxobutanoyl]-5-{2-[4-(2-methylphenyl)-4-oxobutanoyl]-1,3-dioxo-2,3-dihydro-1H-indene-5-carbonyl}-2,3-dihydro-1H-indene-1,3-dione] showed an inhibition at 1 µM of 14%, an inhibition at 3 µM of 37% and an IC50 of 3 µM.
With `C[C@@H]1CC[C@@H](C(=O)C2C(=O)c3ccc(C(=O)c4ccc5c(c4)C(=O)C(C(=O)[C@@H]4CC[C@@H](C)N4C(=O)OC(C)(C)C)C5=O)cc3C2=O)N1C(=O)OC(C)(C)C` (stereo partly drawn) [Example 120B, tert-butyl (2S,5R)-2-(5-{2-[(2S,5R)-1-[(tert-butoxy)carbonyl]-5-methylpyrrolidine-2-carbonyl]-1,3-dioxo-2,3-dihydro-1H-indene-5-carbonyl}-1,3-dioxo-2,3-dihydro-1H-indene-2-carbonyl)-5-methylpyrrolidine-1-carboxylate] the inhibition at 5 µM was 75% and the inhibition at 10 µM was 86%.
In the case of `CCC(=O)C1C(=O)c2ccc(C(=O)c3ccc4c(c3)C(=O)C(C(=O)CC)C4=O)cc2C1=O` (stereo not shown) [Example 324, 5-(1,3-dioxo-2-propanoyl-2,3-dihydro-1H-indene-5-carbonyl)-2-propanoyl-2,3-dihydro-1H-indene-1,3-dione], the inhibition at 10 µM is reported as 35%.
In the case of `O=C(NCC1CCS(=O)(=O)C1)C1C(=O)c2ccc(S(=O)(=O)c3ccc4c(c3)C(=O)C(C(=O)NCC3CCS(=O)(=O)C3)C4=O)cc2C1=O` (stereo not shown) [Example 358, N-[(1,1-dioxo-1λ^6-thiolan-3-yl)methyl]-5-[(2-{[(1,1-dioxo-1λ^6-thiolan-3-yl)methyl]carbamoyl}-1,3-dioxo-2,3-dihydro-1H-inden-5-yl)sulfonyl]-1,3-dioxo-2,3-dihydro-1H-indene-2-carboxamide], the inhibition at 1 µM is reported as 24% and the inhibition at 3 µM is reported as 46%.
With `CCCCC(=O)C1C(=O)c2ccc(S(=O)(=O)c3ccc4c(c3)C(=O)C(C(=O)CCCC)C4=O)cc2C1=O` (stereo not shown) [Example 154, 5-[(1,3-dioxo-2-pentanoyl-2,3-dihydro-1H-inden-5-yl)sulfonyl]-2-pentanoyl-2,3-dihydro-1H-indene-1,3-dione] the inhibition at 5 µM was 100%, the inhibition at 10 µM was 100% and the IC50 was 1.2 µM.
`C[C@@H](C(=O)C1C(=O)c2ccc(S(=O)(=O)c3ccc4c(c3)C(=O)C(C(=O)[C@H](C)N(C)C(=O)OC(C)(C)C)C4=O)cc2C1=O)N(C)C(=O)OC(C)(C)C` (stereo partly drawn) [Example 156, tert-butyl N-[(2S)-1-[5-({2-[(2S)-2-{[(tert-butoxy)carbonyl](methyl)amino}propanoyl]-1,3-dioxo-2,3-dihydro-1H-inden-5-yl}sulfonyl)-1,3-dioxo-2,3-dihydro-1H-inden-2-yl]-1-oxopropan-2-yl]-N-methylcarbamate] was tested, and the inhibition at 5 µM was 94%, the inhibition at 10 µM was 100% and the IC50 was 6.3 µM.
`C[C@@H]1CC[C@@H](C(=O)C2C(=O)c3ccc(-c4ccc5c(c4)C(=O)C(C(=O)[C@@H]4CC[C@@H](C)N4C(=O)OC(C)(C)C)C5=O)cc3C2=O)N1C(=O)OC(C)(C)C` (stereo partly drawn) [Example 214, tert-butyl (2S,5R)-2-{2′-[(2S,5R)-1-[(tert-butoxy)carbonyl]-5-methylpyrrolidine-2-carbonyl]-1,1′,3,3′-tetraoxo-1H,1′H,2H,2′H,3H,3′H-[5,5′-biindene]-2-carbonyl}-5-methylpyrrolidine-1-carboxylate] gave an IC50 of 4 µM.
With `O=C(NC1CC1)C1C(=O)c2ccc(C(c3ccc4c(c3)C(=O)C(C(=O)NC3CC3)C4=O)(C(F)(F)F)C(F)(F)F)cc2C1=O` (stereo not shown) [Example 108, N-cyclopropyl-5-{2-[2-(cyclopropylcarbamoyl)-1,3-dioxo-2,3-dihydro-1H-inden-5-yl]-1,1,1,3,3,3-hexafluoropropan-2-yl}-1,3-dioxo-2,3-dihydro-1H-indene-2-carboxamide] the IC50 was 5.4 µM.

Source: patent US20250281424A1 (New York Blood Center, Inc, priority 2020, published 2025)
